Where two headings read alike, the source gives them in different places.
What was measured:
CitO-wt [1] = biological target: T1, CitO-wt (Enterococcus faecalis, UniProt Q82YV4); type: biochemical; conditions: for Effect on CitO-PcitH−CL complex formation: EDTA-treated CitO-wt
TM0439 = biological target: TM0439; set-up: method as in Zheng et al., 2009; conditions: ref Zheng et al., 2009; cited from earlier work
CitO-wt [2] = biological target: T1, CitO-wt; assay: Isothermal titration calorimetry of CitO-wt with citrate; type: binding
Description: Measurements were performed on a VP-Microcalorimeter (MicroCal, Northampton, MA) at 25°C. The proteins were thoroughly dialyzed against 10 mM Tris (pH 8.0), 500 mM NaCl, and 2.5% glycerol. A solution of citrate (1 mM, pH 8.0) was directly prepared in dialysis buffer. Each titration involved a series of 3 μl injections of the effector molecule into the protein solution. The mean enthalpies measured from injection of the ligand in the buffer were subtracted from raw titration data prior to data analysis with Origin 8 software (MicroCal). Titration curves were fitted by a nonlinear least squares method to a function for the binding of a ligand to a macromolecule (Wiseman et al., [1989]). From the curve thus fitted, the parameters ΔH (reaction enthalpy), KA (binding constant, KA = 1/KD), and N (reaction stoichiometry) were determined. From the values of KA and ΔH, the changes in free energy (ΔG) and entropy (ΔS) were calculated with the following equation: ΔG = −RT lnKA = ΔH−TΔS; where R is the universal molar gas constant and T is the absolute temperature.

CitO-Q64A [3] = biological target: T2, CitO-Q64A (Enterococcus faecalis, UniProt Q82YV4, Q64A); assay: biochemical; type: binding
CitO-H74A [4] = biological target: T3, CitO-H74A (Enterococcus faecalis, UniProt Q82YV4, H74A); assay: biochemical; type: binding
CitO-R97A [5] = type: binding; conditions: ITC, 25°C, ni = no interaction
CitO-F143A [6] = biological target: T4, CitO-F143A (Enterococcus faecalis, UniProt Q82YV4, F143A); assay: biochemical; type: binding
CitO-H191A [7] = type: binding; conditions: ITC, 25°C, ni = no interaction
CitO-L214A [8] = biological target: T5, CitO-L214A (Enterococcus faecalis, UniProt Q82YV4, L214A); assay: biochemical; type: binding
CitO-wt [9] = biological target: T1, CitO-wt; type: binding
Description: The assay was carried out as described earlier (Pagliai et al., [2010]). Briefly, CitO (10 μM), in presence or absence of increasing concentrations of citrate or malate (the latter was used as a negative control), was placed (in duplicate) into 96-well plates (Bio-Rad, Hercules, CA) and heated from 25 to 80°C at the rate of 1°C per min. The unfolding of the protein was monitored by the increase in fluorescence of the fluorophore SYPRO Orange (Invitrogen). Fluorescence intensities were plotted against temperature for each sample well and transition curves were fitted with the Boltzmann equation using Origin 8 software (Northampton, MA). The midpoint of each transition curve was calculated and values obtained in presence of the ligand compared to those calculated for CitO in absence of the ligand.

CitO-Q64A [10] = biological target: T2, CitO-Q64A; type: binding; conditions: DSF
CitO-H74A [11] = biological target: T3, CitO-H74A; type: binding; conditions: DSF
CitO-R97A [12] = type: binding; conditions: DSF, citrate up to 1 mM
CitO-F143A [13] = biological target: T4, CitO-F143A; type: binding; conditions: DSF, 50 μM citrate, Tm = 50°C without citrate
CitO-H191A [14] = type: binding; conditions: DSF, citrate up to 1 mM
CitO-L214A [15] = biological target: T5, CitO-L214A; type: binding; conditions: DSF, only at 50 μM citrate or higher
CitO-Q64A [16] = biological target: T2, CitO-Q64A; type: biochemical; conditions: EMSA, 5 mM citrate
CitO-H74A [17] = biological target: T3, CitO-H74A; type: biochemical; conditions: EMSA, 5 mM citrate
CitO-R97A [18] = type: biochemical; conditions: EMSA, 5 mM citrate
CitO-F143A [19] = biological target: T4, CitO-F143A; type: biochemical; conditions: EMSA, 5 mM citrate
CitO-H191A [20] = type: biochemical; conditions: EMSA, 5 mM citrate
CitO-L214A [21] = biological target: T5, CitO-L214A; type: biochemical
PcitCL promoter activity = assay: β-galactosidase assay, PcitCL fusion to lacZ in JHB14 strains expressing CitO variants; type: cell-based, E. faecalis; conditions: for β-galactosidase activity: LB with 17 mM citrate
CitO = test system: CitO; set-up: method as in Blancato et al., 2008; conditions: in vivo and in vitro experiments; ref Blancato et al., 2008; cited from earlier work
[22] = biological target: CitO, regulator of citrate metabolism from Enterococcus faecalis (Enterococcus faecalis); assay: SEC; Superdex 75; 200 ul of 28.4 uM CitO, with or without 1 mM citrate (pH 8.0), 30 min on ice before injection; 50 mM Tris pH 7.6, 300 mM NaCl, 5% glycerol; 4°C; mass from a standard curve of protein standards
[23] = test system: T6, CitO-L214A L214A (Enterococcus faecalis), ORF:7f2fe6d0; assay: EMSA
T6 sequence: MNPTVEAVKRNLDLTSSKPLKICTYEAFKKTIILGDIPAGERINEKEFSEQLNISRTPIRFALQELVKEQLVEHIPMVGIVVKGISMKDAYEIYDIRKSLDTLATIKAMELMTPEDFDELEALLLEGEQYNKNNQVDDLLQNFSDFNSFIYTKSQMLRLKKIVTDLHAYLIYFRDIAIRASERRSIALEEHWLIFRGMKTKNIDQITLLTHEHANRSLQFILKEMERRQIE

[24] = EMSA, 0.2 μM CitO-wt, Me2+ 2 mM, absence of citrate
[25] = EMSA, Me2+ 2 mM together with 5 mM citrate
[26] = DSF, CitO-wt, ligand added, without ligand Tm1 = 43°C, Tm2 = 58°C

Which “Effect on binding of CitO to PcitH−CL” value (CitO-wt [1]; [24]) does the source give for [Ca+2] [Ca^2+] here?
Its value is “did not modify the binding”.

For O=C(O)CN(CCN(CC(=O)O)CC(=O)O)CC(=O)O [EDTA], which “Effect on binding of CitO to PcitH−CL” value (CitO-wt [1]) is on record?
The value was “decreased the binding”.

Which “Effect on binding of CitO to PcitH−CL” value (CitO-wt [1]; [24]) does the source give for [Mg+2] [Mg^2+] here?
The value was “did not modify the binding”.

With [Mn+2] [Mn^2+] as the molecule, how does the “Effect on binding of CitO to PcitH−CL” value (CitO-wt [1]; [24]) read?
The value was “did not modify the binding”.

Which “Effect on binding of CitO to PcitH−CL” value (CitO-wt [1]; [24]) does the source give for [Ni+2] [Ni^2+] here?
The value was “decreased the binding”.

What about the “Effect on CitO-PcitH−CL complex formation” value (CitO-wt [1]; [25]) of the same molecule?
The value was “increased the stability of the larger CitO-PcitH−CL complexes”.

And the KD (TM0439)?
Its KD is “nanomolar range”.

With [Zn+2] [Zn^2+] as the molecule, how does the “Effect on binding of CitO to PcitH−CL” value (CitO-wt [1]; [24]) read?
Its value is “decreased the binding”.

What about the “Effect on CitO-PcitH−CL complex formation” value (CitO-wt [1]; [25]) of the same molecule?
Its value is “increased the stability of the larger CitO-PcitH−CL complexes”.

And the KD (TM0439)?
The KD was “nanomolar range”.

Which Kd (CitO-wt [2]) does the source give for O=C(O)CC(O)(CC(=O)O)C(=O)O [citrate] here?
Its Kd is 1200 ± 200 nM.

And the ΔG (CitO-wt [2]; ITC, CitO-wt)?
The ΔG was -7.9834 kcal/mol.

What about the ΔH (CitO-wt [2]; ITC, CitO-wt) of the same molecule?
Its ΔH is 6.122 kcal/mol.

What about the “ΔS (entropy change)” value (CitO-wt [2]; ITC, CitO-wt) of the same molecule?
Its value is 47.3 cal/mol/deg.

What about the Kd (CitO-Q64A [3]) of the same molecule?
The Kd was 770 ± 100 nM.

What about the ΔG (CitO-Q64A [3]; ITC, CitO-Q64A) of the same molecule?
Its ΔG is -8.34 kcal/mol.

And the ΔH (CitO-Q64A [3]; ITC, CitO-Q64A)?
The ΔH was 6.724 kcal/mol.

What about the Kd (CitO-H74A [4]) of the same molecule?
Its Kd is 820 ± 40 nM.

What about the ΔG (CitO-H74A [4]; ITC, CitO-H74A) of the same molecule?
The ΔG was -8.4346 kcal/mol.

And the ΔH (CitO-H74A [4]; ITC, CitO-H74A)?
Its ΔH is 6.5 kcal/mol.

What about the KD (CitO-R97A [5]) of the same molecule?
The KD was “did not interact and ni^*”.

And the Kd (CitO-F143A [6])?
The Kd was 440 ± 80 nM.

And the ΔG (CitO-F143A [6]; ITC, CitO-F143A)?
The ΔG was -8.6857 kcal/mol.

What about the ΔH (CitO-F143A [6]; ITC, CitO-F143A) of the same molecule?
The ΔH was 16.02 kcal/mol.

What about the KD (CitO-H191A [7]) of the same molecule?
Its KD is “did not interact and ni^*”.

And the Kd (CitO-L214A [8])?
Its Kd is 1200 ± 200 nM.

And the TΔS (CitO-L214A [8]; ITC, CitO-L214A)?
The TΔS was 46.5 cal/mol/deg.

And the ΔG (CitO-L214A [8]; ITC, CitO-L214A)?
The ΔG was -8.07 kcal/mol.

What about the ΔH (CitO-L214A [8]; ITC, CitO-L214A) of the same molecule?
The ΔH was 5.78 kcal/mol.

What about the “Shift in the Tm2” value (CitO-wt [9]; [26]) of the same molecule?
The value was “induced a shift in the Tm2”.

And the “Shift in Tm” value (CitO-Q64A [10]; 5 μM citrate)?
The value was “clear shift in Tm”.

What about the Thermal stability (CitO-Q64A [10]; 50 μM citrate) of the same molecule?
Its Thermal stability is “higher stability”.

And the “Interaction with citrate in solution” value (CitO-H74A [11])?
The value was “still able to interact with citrate”.

And the “Denaturation temperature in presence vs absence of citrate” value (CitO-R97A [12])?
The value was “denatured at similar temperature”.

What about the Tm (CitO-F143A [13]) of the same molecule?
Its Tm is 57 °C.

What about the “Denaturation temperature in presence vs absence of citrate” value (CitO-H191A [14]) of the same molecule?
The value was “denatured at similar temperature”.

And the “ΔTm (increase in Tm2)” value (CitO-L214A [15])?
The value was 4 °C.

And the “Stability of the CitO-DNA complexes” value (CitO-wt [1]; EMSA, CitO-wt, citrate up to 5 mM)?
Its value is “increased”.

What about the “Effect on CitO-PcitH−CL complex formation” value (CitO-wt [1]; EMSA, 5 mM citrate alone) of the same molecule?
The value was “improved the formation of intermediate complexes”.

And the “Ability to bind the DNA probe in presence of citrate” value (CitO-Q64A [16])?
Its value is “comparable to the wild type”.

And the “Effect on formation of protein:DNA complexes” value (shortened to “Effect on formation”) (CitO-H74A [17])?
The value was “did not modify the formation of protein:DNA complexes”.

And the “Effect on formation” value (CitO-R97A [18])?
The value was “did not modify the formation of protein:DNA complexes”.

What about the “Shift of protein:DNA complex” value (CitO-F143A [19]) of the same molecule?
The value was “strong shift”.

And the “Effect on formation” value (CitO-H191A [20])?
The value was “did not modify the formation of protein:DNA complexes”.

And the “Effect on binding to PcitH−CL” value (CitO-L214A [21])?
Its value is “increased the binding”.

What about the “Increment in the β-galactosidase activity” value (PcitCL promoter activity) of the same molecule?
The value was 64 fold.

What about the β-galactosidase activity (PcitCL promoter activity; CitO-H191A strain) of the same molecule?
The β-galactosidase activity was “very low β-galactosidase activity”.

And the β-galactosidase activity (PcitCL promoter activity; CitO-R97A strain)?
Its β-galactosidase activity is “very low β-galactosidase activity”.

And the β-galactosidase activity (PcitCL promoter activity; strain carrying CitO-H74A)?
The β-galactosidase activity was “reduced β-galactosidase activity”.

And the β-galactosidase activity (PcitCL promoter activity; strain containing CitO-F143A)?
Its β-galactosidase activity is “induced”.

And the β-galactosidase activity (PcitCL promoter activity; strain containing CitO-Q64A)?
Its β-galactosidase activity is “induced”.

And the β-galactosidase activity (PcitCL promoter activity; strain containing CitO-wt)?
Its β-galactosidase activity is “induced”.

What about the “Activation of CitO” value (CitO) of the same molecule?
Its value is “specifically activated only by citrate”.

With O=C(O)CC(C(=O)O)C(O)C(=O)O (stereo not shown) [isocitrate] as the molecule, how does the “Shift in the Tm2” value (CitO-wt [9]; [26]) read?
The value was “did not show a shift in the Tm2”.

With O=C(O)CC(O)C(=O)O (stereo not shown) [malate] as the molecule, how does the “Shift in the Tm2” value (CitO-wt [9]; [26]) read?
Its value is “did not show a shift in the Tm2”.

Which stoichiometry N [22] does the source give for “CitO, regulator of citrate metabolism from Enterococcus faecalis (natural protein)” here?
The stoichiometry N was 2.

For “GGTATACGTTCATTATAGAAAAAACCGTTAAAAAACCTAGTGAAAACACTAGCTCAGATTGTTCTTTTATTGTTTATTTTGTGAAAAAAACTCTGTAAACATTGGTATATAAGCATTTATCAGCCGTTAAGATTCTATTAATATTATATTAAGTTATTAATAAGAATTTGATTGTTGAATTGTTTTTTTGATGTTCTTTTTGTTTTAGGCTATTTATTCTCTGCGAAAGTTTGTATATTCTCACAC (double strand) [PcitH-CL]”, which binding [23] is on record?
Its binding is “binds”.

With succinate as the molecule, how does the “Shift in the Tm2” value (CitO-wt [9]) read?
Its value is “did not show a shift in the Tm2”.

— PMC4746285, “Functional Analysis of the Citrate Activator CitO from Enterococcus faecalis Implicates a Divalent Metal in Ligand Binding” (Frontiers in Microbiology, 2016)
